The results in this text go back to PubChem BioAssay (NCI).

Among the test systems are BT-549 breast; COLO 205 colon; DU-145 prostate; HL-60(TB) leukemia; HT29 colon; K-562 leukemia; KM12 colon; LOX IMVI melanoma; MALME-3M melanoma; MCF7 breast; MDA-MB-435; MDA-N; NCI-H23 lung; NCI-H522 lung; OVCAR-8 ovarian; SK-MEL-2 melanoma; SK-OV-3 ovarian; SNB-75 CNS; T-47D breast; OVCAR-4 ovarian.
Common to all, as to experiment: NCI tumour cell line growth inhibition, 48 h

Each structure is given as a SMILES string.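 Protocol summary: plate cells (96-well), add compound at 5 concentrations, incubate 48 h, interpolate endpoints linearly. TGI marks complete inhibition of growth.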

Regarding `CCCCc1ccc(Nc2nc(Cl)c3ncn(C4CC(Oc5ccc(C)cc5)C(COc5ccc(C)cc5)O4)c3n2)cc1` (stereo not given), the TGI in the assay with BT-549 breast, with COLO 205 colon, in the assay on DU-145 prostate, with HL-60(TB) leukemia, in the assay with HT29 colon and with K-562 leukemia was above 100 µM throughout. For the same molecule, the TGI in the assay with KM12 colon, in the assay on LOX IMVI melanoma, with MALME-3M melanoma, with MCF7 breast, in the assay with MDA-MB-435 and in the assay with MDA-N was above 100 µM each time. Besides, the TGI with NCI-H23 lung, in the assay with NCI-H522 lung, with OVCAR-8 ovarian, in the assay with SK-MEL-2 melanoma, with SK-OV-3 ovarian and with SNB-75 CNS was above 100 µM in each case. Also, in the assay with T-47D breast, the TGI is above 100 µM.

For `Cc1[nH]n(-c2ccccc2)c(=O)c1C(N(CCc1ccccc1)C1=NCC(C)S1)(C(F)(F)F)C(F)(F)F` (stereo not given), the TGI in the assay with BT-549 breast is 49.1 µM; with COLO 205 colon, 18.7 µM; in the assay with DU-145 prostate, above 100 µM; in the assay on HL-60(TB) leukemia it was 52.5 µM; in the assay with HT29 colon, above 100 µM; with K-562 leukemia, above 100 µM. The TGI is above 100 µM in the assay with KM12 colon; above 100 µM in the assay with LOX IMVI melanoma; 97.9 µM in the assay with MALME-3M melanoma; above 100 µM in the assay on MCF7 breast; above 100 µM in the assay with MDA-MB-435; 45.7 µM in the assay with MDA-N. Moreover, the TGI is 20 µM with NCI-H23 lung; 28.2 µM in the assay on NCI-H522 lung; above 100 µM in the assay with OVCAR-4 ovarian; 22.4 µM in the assay on SK-MEL-2 melanoma; 95.1 µM in the assay on SK-OV-3 ovarian; 50.1 µM with SNB-75 CNS. The molecule also came in with a TGI in the assay on T-47D breast of 43.1 µM.

As for `O=C(NNC(=O)c1ccccc1O)c1ccco1`, the TGI in the assay with BT-549 breast, in the assay with COLO 205 colon, in the assay on DU-145 prostate, with HL-60(TB) leukemia, in the assay with HT29 colon and in the assay with K-562 leukemia was above 100 µM throughout. Besides, the TGI with KM12 colon, in the assay on LOX IMVI melanoma, in the assay on MALME-3M melanoma, with MCF7 breast, in the assay with MDA-MB-435 and in the assay with MDA-N was above 100 µM in each case. The TGI in the assay on NCI-H522 lung, with OVCAR-4 ovarian, in the assay with OVCAR-8 ovarian, with SK-MEL-2 melanoma, in the assay with SK-OV-3 ovarian and in the assay on SNB-75 CNS was above 100 µM each time. Further, the TGI in the assay with T-47D breast is above 100 µM.

On to `COCCOC1=C(Cl)C(=O)c2c(O)ccc(O)c2C1=O`, for which the TGI in the assay on BT-549 breast was found to be 5.44 µM; in the assay with COLO 205 colon it was 2.34 µM; with DU-145 prostate, 13.2 µM; in the assay with HT29 colon, 7.7 µM; with KM12 colon, 26.8 µM; in the assay on LOX IMVI melanoma it was 3.28 µM. The TGI turned out to be 2.17 µM in the assay on MALME-3M melanoma; 3.04 µM with MCF7 breast; 2.23 µM with MDA-MB-435; 3.03 µM in the assay with MDA-N; 9.54 µM in the assay on NCI-H23 lung; 1.67 µM with NCI-H522 lung. The TGI with OVCAR-4 ovarian was found to be 4.34 µM; with OVCAR-8 ovarian, 6.66 µM; with SK-MEL-2 melanoma it was 14.5 µM; with SK-OV-3 ovarian it was 30.7 µM; with SNB-75 CNS, 13.9 µM; in the assay with T-47D breast it was 6.61 µM.

For `COCOc1c(C(OCOC)c2cnc(Sc3ccccc3)n2C)ccc(OC)c1OC` (stereo not given), the TGI with BT-549 breast, in the assay on DU-145 prostate, with HL-60(TB) leukemia, in the assay with HT29 colon, with K-562 leukemia and in the assay with KM12 colon was above 100 µM in each case. Moreover, the TGI in the assay with LOX IMVI melanoma, with MALME-3M melanoma, in the assay on MCF7 breast, with MDA-MB-435, with MDA-N and in the assay with NCI-H23 lung was above 100 µM throughout. Moreover, the TGI in the assay with NCI-H522 lung, in the assay with OVCAR-4 ovarian, with OVCAR-8 ovarian, with SK-MEL-2 melanoma, in the assay with SK-OV-3 ovarian and with SNB-75 CNS was above 100 µM each time. The same molecule gave a TGI in the assay with T-47D breast above 100 µM.

Consider `NCCNCCCNC(=O)c1cc(-c2ccccc2)nc2ccccc12`, for which the TGI is above 100 µM in the assay on BT-549 breast; 30.9 µM in the assay with COLO 205 colon; above 100 µM in the assay with DU-145 prostate; above 100 µM with HL-60(TB) leukemia; above 100 µM with HT29 colon; 54.9 µM in the assay on K-562 leukemia. In addition, the TGI with KM12 colon is above 100 µM; with LOX IMVI melanoma, above 100 µM; in the assay with MALME-3M melanoma, 30.8 µM; in the assay with MCF7 breast, above 100 µM; in the assay on MDA-MB-435, 43.5 µM; with MDA-N it was 66.8 µM. The TGI in the assay with NCI-H23 lung is above 100 µM; with NCI-H522 lung, 37.6 µM; in the assay on OVCAR-8 ovarian, above 100 µM; in the assay with SK-MEL-2 melanoma it was 42.7 µM; in the assay with SK-OV-3 ovarian it was above 100 µM; in the assay on T-47D breast it was above 100 µM.

In the case of `COc1ccc2c(c1)CCc1c-2n(CCN2CCOCC2)c2ccc(OC)cc12`, the TGI was above 100 µM with BT-549 breast; above 100 µM in the assay with COLO 205 colon; above 100 µM with DU-145 prostate; 53.6 µM with HT29 colon; 54 µM with K-562 leukemia; above 100 µM in the assay with KM12 colon. Also, the TGI in the assay on MALME-3M melanoma, in the assay with MCF7 breast, with MDA-MB-435, in the assay with MDA-N, in the assay on NCI-H23 lung and with NCI-H522 lung was above 100 µM each time. Further, the TGI in the assay on OVCAR-4 ovarian, in the assay with OVCAR-8 ovarian, in the assay with SK-MEL-2 melanoma, in the assay with SK-OV-3 ovarian, with SNB-75 CNS and in the assay with T-47D breast was above 100 µM throughout.
